Assay results reported in US20080071116A1, “Modulators of Lysophosphatidic Acid (Lpa) Signaling and the Use Thereof” (THE BOARD OF REGENTS OF THE UNIVERSITY OF TEXAS SYSTEM, priority 2004, published 2008).
“Also recorded” adds a separate entry of the source.

Experiments:
HT29 cells [1] = test: calcium mobilization assay in colon cancer HT29 cells; type: cell-based; settings: HT29 cells (only express LPA2), FIGS. 21-22
Description: The procedures for these calcium mobilization assays are as followed: OVCAR3 cells and PC-3 cells were cultured in RPMI 1640 medium with 10% FBS (fetal bovine serum). HT29 cells were cultured in DMEM (high glucose) medium with 10% FBS. All cells were cultured at about 37° C. in a humidified atmosphere with 5% CO2. After starvation in serum-free medium for about 12-24 hours, cells were harvested and loaded with about 1 μM of Indo-1 AM in serum-free medium for about 45 min at 37° C. Cells were washed in PBS and resuspended at 2×10^6 cells/ml in a [Ca^2+]i assay buffer (Sodium chloride, NaCl, about 140 mM, potassium chloride, KCl, about 2 mM, magnesium chloride, MgCl2, about 1 mM, calcium chloride, CaCl2, about 2 mM, in about 25 mM HEPES buffer at pH 7.4 with about 10 mM of glucose). Cytoplasmic [Ca^2+]i was determined at an excitation wavelength of about 331 nm and an emission wavelength of 410 nm using a fluorescence spectrophotometer (Hitachi, F-4000). Approximately 3×10^6 cells were used for [Ca^2+]l determination in a stirred quartz cuvette kept at about 37° C. OMPT or 18:1 LPA was dissolved in about 0.1% BSA/PBS solution and applied immediately to the cells. To test other LPA derivatives of the invention, cells were exposed to the derivatives for about 3 minutes or for a period of various times in time course related experiments before a LPA agonist, such as 18:1 LPA, OMPT, or other LPAs was applied into the cuvette.
The concentration of calcium mobilization giving the half-maximal response (EC50) was obtained from the concentration-response curve fitted to a sigmoidal logistic equation, with the maximal calcium response set to 100% using the GraphPad Prism. Maximal response value is expressed as mean +/−s.e.m. EC50 value is expressed with 95% confidence.

DU145 cells [2] = test: calcium mobilization assay in androgen insensitive prostate cancer DU145 cells; type: cell-based, human
HT29 cells [3] = test: lamellipodia formation in colon cancer HT29 cells; type: cell-based; settings: for inhibition of 14:0 LPA-induced lamellipodia formation / inhibition of 1% FBS-induced lamellipodia formation / inhibition of 10% FBS-induced lamellipodia formation: HT29
PC-3 cells [4] = test: lamellipodia formation in PC-3 cells; type: cell-based, human; settings: 30 μM
HT29 cells [5] = test: cell growth (cell viability) in HT29 cells; type: cell-based
PC-3 cells [6] = test: cell growth (cell viability) in PC-3 cells; type: cell-based, human; settings: for inhibition of cell growth (cell viability): PC-3
DU145 cells [7] = test: cell growth (cell viability) in DU145 cells; type: cell-based, human
DU145 cells [8] = test: cell migration of DU145 cells; type: cell-based, human
DU145 cells [9] = test: focal adhesion in DU145 cells; type: cell-based, human; settings: FIG. 55
PC-3 cells [10] = test: focal adhesion in PC-3 cells; type: cell-based, human; settings: FIG. 56

**Q.** With CCCCCCCCCCCCCCCCCC(=O)OC[C@@H](O)COP(=O)(O)OCC(O)CO (mixture of isomers) [18:0 LPG, 1-stearoyl-2-hydroxy-sn-glycero-3-[phospho-rac-(1-glycerol)]] as the molecule, how does the “inhibition of (18:1) LPA-induced calcium mobilization” value (HT29 cells [1]) read?
**A.** inhibited LPA-induced calcium mobilization; also recorded: effective inhibitors/antagonists

**Q.** What about the “inhibition of 14:0 LPA-induced calcium mobilization” value (DU145 cells [2]) of the same molecule?
**A.** inhibited calcium mobilization

**Q.** And the inhibition of lamellipodia (HT29 cells [3]; HT29, serum-free medium, 10 and 30 μM, FIGS. 24-25)?
**A.** inhibits lamellipodia in HT29 cells in a concentration dependent manner

**Q.** What about the “inhibition of 14:0 LPA-induced lamellipodia formation” value (HT29 cells [3]; 10 μM, FIG. 27) of the same molecule?
**A.** inhibition of 14:0 LPA-induced LPA2 receptor mediated lamellipodia formation

**Q.** What about the “inhibition of 1% FBS-induced lamellipodia formation” value (HT29 cells [3]; 10 μM, FIG. 30) of the same molecule?
**A.** inhibition of 1% FBS-induced LPA2 receptor mediated lamellipodia formation

**Q.** What about the “inhibition of 10% FBS-induced lamellipodia formation” value (HT29 cells [3]; 10 μM, FIG. 33) of the same molecule?
**A.** no inhibition

**Q.** What about the “inhibition of 14:0 LPA-induced lamellipodia formation” value (HT29 cells [3]; 30 μM, FIG. 28) of the same molecule?
**A.** inhibition of 14:0 LPA-induced LPA2 receptor mediated lamellipodia formation

**Q.** And the “inhibition of 1% FBS-induced lamellipodia formation” value (HT29 cells [3]; 30 μM, FIG. 31)?
**A.** inhibition of 1% FBS-induced LPA2 receptor mediated lamellipodia formation

**Q.** What about the “inhibition of 10% FBS-induced lamellipodia formation” value (HT29 cells [3]; 30 μM, FIG. 34) of the same molecule?
**A.** no inhibition

**Q.** And the “effect on spontaneously activated lamellipodia” value (PC-3 cells [4]; PC-3, serum-free, FIGS. 38-40)?
**A.** inhibit spontaneously activated lamellipodia

**Q.** And the “inhibition of 18:1 LPA-induced lamellipodia formation” value (PC-3 cells [4]; PC-3, FIGS. 42-44)?
**A.** inhibition of 18:1 LPA-induced LPA2 receptor mediated lamellipodia formation

**Q.** And the “inhibition of cell growth (cell viability)” value (“inhibition of cell growth” for short) (HT29 cells [5]; FBS (1%), FIG. 36)?
**A.** inhibition of cell growth (cell viability) at high concentrations

**Q.** And the “inhibition of cell growth” value (HT29 cells [5]; FBS (10%), FIG. 36)?
**A.** but not in the presence of high concentrations of FBS (10%)

**Q.** And the “inhibition of cell growth” value (HT29 cells [5]; in the presence of 10 μM of 14:0 LPA, FIG. 35)?
**A.** inhibition of cell growth (cell viability) at high concentrations

**Q.** What about the “inhibition of cell growth” value (PC-3 cells [6]; in the presence of 10 μM of 18:1 LPA, FIGS. 45-47) of the same molecule?
**A.** inhibition of cell growth (cell viability) at high concentrations

**Q.** What about the “inhibition of cell growth” value (PC-3 cells [6]; without LPA, FIGS. 46-47) of the same molecule?
**A.** inhibition of cell growth (cell viability) at high concentrations

**Q.** What about the “reduction of cell viability / cell growth” value (PC-3 cells [6]; PC-3 cells) of the same molecule?
**A.** reduced cell viability

**Q.** And the “reduction of cell viability / cell growth” value (DU145 cells [7])?
**A.** reduced cell viability

**Q.** What about the “reduction of cell migration” value (DU145 cells [8]) of the same molecule?
**A.** could reduce cell migration

**Q.** And the “reduction of focal adhesion” value (DU145 cells [9])?
**A.** reduce focal adhesion

**Q.** What about the “reduction of focal adhesion” value (PC-3 cells [10]) of the same molecule?
**A.** reduce focal adhesion
